Measured values from patent US20180087023A1, “METHOD OF PRODUCING BIOPRODUCTS” (White Dog Labs, Inc., priority 2015, published 2018).

Tests used:
[1] = Single-stage extraction of 2% aqueous bioproduct solutions with extractant (Examples 1-9); type: physicochemical; details: for Raffinate Bioproduct conc. (%) / Extract Bioproduct conc. (%): 100 g of 2% aqueous solution mixed with 100 g extractant of 80% 1-butene + 20% DME; for Raffinate Bioproduct conc. (%): raffinate phase; for Extract Bioproduct conc. (%): pressure vessel, extract phase; for DC (bioproduct distribution coefficient): extract/raffinate, extractant 80% 1-butene + 20% DME, ambient temperature (Table 1); for Distribution coefficient, 100% DME: extractant 100% DME (Table 2)
Description: Extraction of various bioproducts with an extractant composed of 80% 1-butene and 20% dimethylether (DME) 100 grams (g) of aqueous solutions of various bioproducts were prepared. Bioproduct initial concentration was 2%. Each of these bioproduct aqueous solutions was extracted in a pressure vessel by mixing with 100 g of extractant composed of 80% 1-butene (the hydrocarbon) and 20% dimethylether (the oxygenated compound) at ambient temperature. The amount of formed extract and formed raffinate and the concentration (conc.) of the bioproduct in each were determined. Theses concentrations were used to calculate the bioproduct distribution coefficient (DC). Also determined was the concentration of DME in the raffinate. Table 2 compares the found distribution coefficients to those of extracting with an extractant composed of 100% DME.

[2] = Effect of DME/1-butene ratio in the extractant on n-butanol extraction (Example 10); type: physicochemical; details: after extracting 2% n-butanol solution, 1:1 w/w, room temperature
Description: Extractant to aqueous solution weight/weight ratio was 1 to 1. Distribution coefficients, extractant concentration in the raffinate and extraction yield (single stage extraction at the selected extractant/aqueous solution weight/weight ratio) were determined and are summarized in Table 3.

| Compound | Raffinate Bioproduct conc. (%) ([1]; ambient temperature) | Extract Bioproduct conc. (%) ([1]; ambient temperature) | DC (bioproduct distribution coefficient) [1] | Distribution coefficient, 100% DME [1] | Raffinate DME conc. (%) ([1]; DME in raffinate after extracting each 2% bioproduct solution with 80% 1-butene + 20% DME, ambient temperature) | Wt % Extractant in Raffinate [2] | Distribution coefficient, 20% DME + 80% 1-Butene ([1]; extractant 20% DME + 80% 1-butene (Table 2)) |
| --- | --- | --- | --- | --- | --- | --- | --- |
| CCCC=O [Butanal] | 0.26% | 1.85% | 7.16 | 5.11 |  |  |  |
| O=C(O)CCCC(=O)O [Glutaric Acid] | 1.37% | 0.56% | 0.43 | 1.88 |  |  |  |
| CCCC(C)=O [2-Pentanone] | 0.22% | 1.89% | 8.45 | 5.82 |  |  |  |
| O=C1CCCO1 [Gamma Butyrolactone] | 0.37% | 0.172% | 4.63 | 3.14 |  |  |  |
| O=Cc1ccco1 [Furfural] | 0.46% | 0.162% | 3.54 | 3.79 |  |  |  |
| CCC(=O)O [Propionic Acid] | 0.92% | 1.09% | 1.18 | 2.27 |  |  |  |
| COC [DME, dimethylether, reference compound] |  |  |  |  | 4.5% | 31.0% |  |
| O=C(O)CCC(=O)O [Succinic Acid] | 1.66% | 0.22% | 0.13 | 1.01 |  |  |  |
| CCCC(=O)OC [Methyl Butyrate] | 0.034% | 2.12% | 61.1 | 20.73 |  |  | 61.14 |
